Laboratory results from PubChem BioAssay (NCI).
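Cells were grown in 96-well plates and exposed to each compound for 48 hours at five concentrations; endpoints were interpolated linearly between bracketing concentrations, or set to the highest concentration if not reached. Here, GI50 denotes the concentration required for 50% inhibition of growth. TGI denotes the concentration required for complete inhibition of growth.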

How the values were obtained:
Assay in all cases: NCI tumour cell line growth inhibition, 48 h
SK-MEL-2 melanoma = test system: SK-MEL-2 melanoma
HS 578T breast = test system: HS 578T breast
NCI-H226 lung = test system: NCI-H226 lung
HOP-92 NSCLC = test system: HOP-92 NSCLC
MALME-3M melanoma = test system: MALME-3M melanoma
BT-549 breast = test system: BT-549 breast
NCI-H522 lung = test system: NCI-H522 lung

Compound | TGI (SK-MEL-2 melanoma) [µM] | TGI (HS 578T breast) [µM] | TGI (NCI-H226 lung) [µM] | TGI (HOP-92 NSCLC) [µM] | TGI (MALME-3M melanoma) [µM] | TGI (BT-549 breast) [µM] | TGI (NCI-H522 lung) [µM] | GI50 (HOP-92 NSCLC) [nM]
Nc1nc(SCCc2ccccc2)c2[nH]cnc2n1 | 82.9 | > 100 | > 100 | > 100 | > 100 | > 100 | > 100 | –
Cc1n[nH]c(=O)n1/N=C/c1ccc(Cl)cc1 | – | – | – | > 100 | – | > 100 | > 100 | –
CCOC(=O)c1csc(NC(=O)CN2CCOCC2)n1 | > 100 | > 100 | – | > 100 | – | – | – | –
CC1(C)OC(=O)N(c2ccccc2)C12C=Cc1cc([N+](=O)[O-])cc([N+](=O)[O-])c1O2 (stereo not drawn) | > 100 | > 100 | > 100 | > 100 | – | > 100 | > 100 | –
O=c1[nH]c(Nc2cccc(CC(F)(F)F)c2)nc2nc[nH]c12 | > 100 | > 100 | > 100 | > 100 | > 100 | > 100 | > 100 | –
CC(=O)NC(Cc1ccc(O)cc1)C(=O)O (stereo not drawn) | > 100 | > 100 | > 100 | > 100 | > 100 | > 100 | > 100 | –
Cc1ccc(-c2n[nH]c(=O)n2N2C(=O)c3ccccc3C2=O)cc1 | > 100 | > 100 | > 100 | – | > 100 | > 100 | > 100 | –
COc1cc2c(c(OC)c1OC)C(=O)[C@@H]1[C@H]2N1C(N)=O | – | > 100 | > 100 | – | > 100 | – | > 100 | –
Cc1ccc(N=NC(=Nc2ccccc2)c2ccc(N(CCC#N)CCC#N)cc2)cc1 | 48 | > 100 | > 100 | 64.8 | – | 47.3 | 45.2 | –
CC(C)(C)OC(=O)N[C@H]1CCN(C2CCCCC2)C1=O | > 100 | > 100 | > 100 | > 100 | – | – | – | –
O=[N+]([O-])c1ccc2c(c1)/C(=N/N=C1c3ccccc3Cc3ccccc31)c1cc([N+](=O)[O-])cc([N+](=O)[O-])c1-2 | 24.8 | 6.81 | 31.5 | 8.61 | 6.46 | 2.87 | 3.25 | –
O=C1/C(=C/c2ccccc2)N=C2Sc3c(nc[nH]c3=O)N12 | > 100 | > 100 | > 100 | > 100 | > 100 | – | > 100 | –
COc1cc(C2c3cc4c(cc3OC(N3CCOCC3)C2C)OCO4)ccc1O (stereo not drawn) | 33.6 | 41.9 | – | > 100 | > 100 | > 100 | 58.4 | –
CCCCCCCCCCCCCCNC(=O)CCC(NC(=O)c1ccc(N(C)Cc2cnc3nc(N)nc(N)c3n2)cc1)C(=O)NCCCCCCCCCCCCCC (stereo not drawn) | > 61.9 | 29.1 | > 100 | 63.8 | – | 41.1 | 32.4 | –
O=c1c2cc([N+](=O)[O-])cnc2sn1-c1ccc([N+](=O)[O-])cc1 | 88.1 | 90 | > 100 | – | 53 | 93.9 | 25.7 | –
CN1CCN(C2=NCCO2)CC1 | > 100 | – | > 100 | – | > 100 | – | > 100 | –
NC(N)=N/N=C/c1c(-c2ccc(N)cc2)nc2sccn12 | 81.8 | > 100 | > 100 | > 100 | > 100 | > 100 | 76 | –
C=CC1(C)CCC2C(=CCC3C2(C)CC(O)C(O)C3(C)COC2OC(C(=O)O)C(O)C(O)C2O)C1 (stereo not drawn) (tested in a mixture with another compound) | > 100 | > 100 | > 100 | > 100 | > 100 | > 100 | > 100 | –
O=C1C=CC(=O)c2c1ccc1c3ccccc3n(CCCCCCCCCCCCn3c4ccccc4c4ccc5c(c43)C(=O)C=CC5=O)c21 | > 100 | > 100 | > 100 | > 100 | > 100 | > 100 | > 100 | –
CC(C)(C)OC(=O)NCCCCC1NC(=O)[C@@H]2Cc3c([nH]c4ccccc34)C(C3CCCCC3)N2C1=O (stereo partly drawn) | > 100 | > 100 | > 100 | > 100 | > 100 | > 100 | > 100 | –
O=c1ccc(-c2ccccc2)n[nH]1 | > 100 | > 100 | – | > 100 | > 100 | > 100 | > 100 | –
COc1ccc(N/N=C2\CCOc3ccc(C)cc3C2=O)cc1 | 46 | > 100 | 90.7 | > 100 | 38.7 | 87.5 | > 100 | –
COc1cc(Br)cc2cc(-c3cn4ccsc4n3)c(=O)oc12 | > 100 | > 100 | – | 71.9 | > 100 | 50.7 | > 100 | –
COC(=O)C([C@H](NC1(c2ccccc2)c2ccccc2-c2ccccc21)C(=O)OC)N(NC(=O)OCc1ccccc1)C(=O)OCc1ccccc1 (mixture of isomers) | > 100 | > 100 | – | > 100 | > 100 | > 100 | > 100 | –
Clc1ccccc1C(SCc1ccccc1)SCc1ccccc1 | > 100 | – | > 100 | > 100 | > 100 | > 100 | > 100 | –
CCOC(=O)/C=C/CC(C)(C)CCOC(C)=O | > 10 | > 10 | > 10 | > 10 | – | – | > 10 | –
O=C1c2ccccc2-c2c1c1ccccc1c(=O)n2CCNCCNCCNCCn1c2c(c3ccccc3c1=O)C(=O)c1ccccc1-2 | – | – | – | > 100 | – | – | – | 2900
CC(=O)OC1CC(OC2C(O)CC(OC3C(O)CC(OC4CCC5(C)C(CCC6C5CC(O)C5(C)C(C7=CC(=O)OC7)CCC65O)C4)OC3C)OC2C)OC(C)C1OC1OC(CO)C(O)C(O)C1O (stereo not drawn) | 0.488 | 0.525 | 0.606 | 0.517 | 0.249 | 0.167 | 0.114 | –
COc1ccc(C2CC(c3c(O)ccc4ccccc34)=NN2C(C)=O)cc1OC (stereo not drawn) | 52.1 | > 100 | > 100 | > 100 | 92.1 | 43.9 | > 100 | –
